Data published in the CheMixHub viscosity set.
Values joined by “and” are separate entries in the source; they are usually repeats but may differ in a detail not shown here. Identical values can stand only once. ± gives the uncertainty stated by the source.

Assay: xn = mol fraction of the nth substance listed

CCCCCCC(C)O (stereo not drawn) + Brc1ccccc1
viscosity [mPa·s], 101 kPa
Conditions | 298.15 K | 303.15 K
x2 = 0.0495 | 5.76 ± 0.031 | 4.559 ± 0.026
x2 = 0.1184 | 4.748 ± 0.027 | 3.795 ± 0.022
x2 = 0.1814 | 4.027 ± 0.023 | 3.25 ± 0.019
x2 = 0.2506 | 3.367 ± 0.02 | 2.769 ± 0.016
x2 = 0.2943 | 3.034 ± 0.018 | 2.532 ± 0.015
x2 = 0.3711 | 2.576 ± 0.016 | 2.178 ± 0.014
x2 = 0.4297 | 2.285 ± 0.015 | 1.961 ± 0.013
x2 = 0.5077 | 1.983 ± 0.013 | 1.738 ± 0.012
x2 = 0.5834 | 1.766 ± 0.013 | 1.554 ± 0.011
x2 = 0.6524 | 1.587 ± 0.012 | 1.418 ± 0.011
x2 = 0.7315 | 1.41 ± 0.011 | 1.275 ± 0.01
x2 = 0.8025 | 1.3 ± 0.011 | 1.174 ± 0.01
x2 = 0.8722 | 1.192 ± 0.01 | 1.093 ± 0.01
x2 = 0.9483 | 1.107 ± 0.01 | 1.03 ± 0.01

CCCCCCC(C)O (stereo not drawn) + C1CCCCC1
303.15 K, 101.33 kPa
Conditions | viscosity [mPa·s]
x1 = 0.0999 | 0.9208 ± 0.011
x1 = 0.2048 | 1.086 ± 0.013
x1 = 0.303 | 1.317 ± 0.016
x1 = 0.3982 | 1.601 ± 0.019
x1 = 0.4667 | 1.847 ± 0.022
x1 = 0.5235 | 2.072 ± 0.024
x1 = 0.5347 | 2.124 ± 0.025
x1 = 0.6961 | 2.908 ± 0.033
x1 = 0.7992 | 3.516 ± 0.04
x1 = 0.899 | 4.161 ± 0.047

c1c[nH]cn1 + CC(=O)O
101 kPa, x1 = 0.5
Conditions | viscosity [mPa·s]
303.15 K | 54 ± 10
323.15 K | 20

NCCNCCNCCN + CC(C)(N)CO
viscosity [mPa·s], 101 kPa
Conditions | x1 = 0.0971 | x1 = 0.2071 | x1 = 0.289 | x1 = 0.3787 | x1 = 0.4776 | x1 = 0.5872 | x1 = 0.7092 | x1 = 0.8458 | x1 = 0.9205
303.15 K | 93.54 ± 9.4 | 86.24 ± 8.7 | 80.73 ± 8.1 | 74.33 ± 7.5 | 67.05 ± 6.7 | 58.76 ± 5.9 | 49.22 ± 4.9 | 38.21 ± 3.8 | 32.14 ± 3.2
313.15 K | 45.15 ± 4.5 | 42.38 ± 4.2 | 40.21 ± 4 | 37.61 ± 3.8 | 34.58 ± 3.5 | 30.81 ± 3.1 | 26.45 ± 2.6 | 21.3 ± 2.1 | 18.55 ± 1.9
323.15 K | 23.64 ± 2.4 | 22.83 ± 2.3 | 22.02 ± 2.2 | 20.95 ± 2.1 | 19.54 ± 2 | 17.81 ± 1.8 | 15.76 ± 1.6 | 13.05 ± 1.3 | 11.61 ± 1.2

CCCCCCCCCC(=O)O + CC(C)[C@@H]1CC[C@@H](C)C[C@H]1O
viscosity [mPa·s]
Conditions | 293.15 K | 298 K | 298.15 K | 303.15 K | 308.15 K | 313.15 K | 318.15 K | 323.15 K
100 kPa, x1 = 0.333 | 28.37 ± 0.69 | – | 21.15 ± 0.53 | 16.15 ± 0.4 | 12.59 ± 0.31 | 10 ± 0.24 | 8.08 ± 0.19 | 6.63 ± 0.16
100 kPa, x1 = 0.4 | 24.68 ± 0.23 | – | 18.85 ± 0.17 | 14.7 ± 0.14 | 11.68 ± 0.11 | 9.43 ± 0.09 | 7.73 ± 0.07 | 6.42 ± 0.06
100 kPa, x1 = 0.5 | 22 ± 2.2 | – | 17.5 ± 1.8 | 13.5 ± 1.4 | 11 ± 1.1 | 9 ± 0.9 | 7.5 ± 0.8 | 6.3 ± 0.6
101 kPa, x2 = 0.333 | – | 16.3 ± 0.7 | – | – | – | – | – | –

c1ccncc1 + CC(O)CO
101 kPa
Conditions | viscosity [mPa·s]
293.15 K, x1 = 0.2999 | 15.55 ± 0.07
303.15 K, x1 = 0.8 | 1.425 ± 0.0099
308.15 K, x1 = 0.7001 | 1.795 ± 0.011
318.15 K, x1 = 0.4 | 3.855 ± 0.018

c1ccncc1 + CCC(C)=O
100 kPa
Conditions | viscosity [mPa·s]
308.15 K, x1 = 0.1006 | 0.3835 ± 0.0061
313.15 K, x1 = 0.597 | 0.5265 ± 0.0074
323.15 K, x1 = 0.4004 | 0.4095 ± 0.0063

CCOC(=O)C(Br)CC (stereo not drawn) + CCCCCC
303.15 K, 101 kPa
Conditions | viscosity [mPa·s]
x1 = 0.1972 | 0.3726 ± 0.0047
x1 = 0.3889 | 0.5074 ± 0.0051
x1 = 0.4924 | 0.6029 ± 0.0055
x1 = 0.5981 | 0.7246 ± 0.0059
x1 = 0.7949 | 1.032 ± 0.0071

CCCCCCC(C)O (stereo not drawn) + CCCCCCCC
298.15 K, 101 kPa
Conditions | viscosity [mPa·s]
x2 = 0.0487 | 5.956 ± 0.057
x2 = 0.1002 | 5.301 ± 0.049
x2 = 0.1498 | 4.654 ± 0.043
x2 = 0.2006 | 3.998 ± 0.036
x2 = 0.2516 | 3.364 ± 0.029
x2 = 0.3003 | 2.796 ± 0.024
x2 = 0.3538 | 2.228 ± 0.019
x2 = 0.4003 | 1.79 ± 0.015
x2 = 0.4466 | 1.411 ± 0.012
x2 = 0.5001 | 1.049 ± 0.01
x2 = 0.5517 | 0.778 ± 0.009
x2 = 0.6002 | 0.59 ± 0.008
x2 = 0.6539 | 0.454 ± 0.007
x2 = 0.6994 | 0.39 ± 0.007
x2 = 0.7449 | 0.366 ± 0.007
x2 = 0.8 | 0.376 ± 0.007
x2 = 0.8465 | 0.402 ± 0.007
x2 = 0.9003 | 0.434 ± 0.007
x2 = 0.9521 | 0.441 ± 0.007

CCCCCCC(C)O (stereo not drawn) + CCCCCCCCCCCC
298.15 K, 101 kPa
Conditions | viscosity
x1 = 0.0003 | 1.337 ± 0.011 mPa·s
x2 = 0.0554 | 5.513 ± 0.051 mPa·s and 5.51 ± 0.07 mPa·s
x2 = 0.0999 | 4.916 ± 0.045 mPa·s and 4.92 ± 0.07 mPa·s
x2 = 0.1554 | 4.254 ± 0.037 mPa·s and 4.25 ± 0.07 mPa·s
x2 = 0.1998 | 3.786 ± 0.032 mPa·s and 3.79 ± 0.06 mPa·s
x2 = 0.2555 | 3.272 ± 0.027 mPa·s and 3.27 ± 0.06 mPa·s
x2 = 0.2998 | 2.916 ± 0.023 mPa·s and 2.92 ± 0.06 mPa·s
x2 = 0.3554 | 2.532 ± 0.02 mPa·s and 2.53 ± 0.06 mPa·s
x2 = 0.3998 | 2.27 ± 0.018 mPa·s and 2.27 ± 0.06 mPa·s
x2 = 0.4554 | 1.995 ± 0.015 mPa·s and 2 ± 0.06 mPa·s
x2 = 0.4999 | 1.813 ± 0.014 mPa·s and 1.81 ± 0.06 mPa·s
x2 = 0.5555 | 1.627 ± 0.013 mPa·s and 1.63 ± 0.06 mPa·s
x2 = 0.5998 | 1.508 ± 0.012 mPa·s and 1.51 ± 0.06 mPa·s
x2 = 0.6555 | 1.391 ± 0.011 mPa·s and 1.39 ± 0.06 mPa·s
x2 = 0.6998 | 1.32 ± 0.011 mPa·s and 1.32 ± 0.06 mPa·s
x2 = 0.7554 | 1.253 ± 0.01 mPa·s and 1.25 ± 0.06 mPa·s
x2 = 0.7998 | 1.213 ± 0.01 mPa·s and 1.21 ± 0.06 mPa·s
x2 = 0.8555 | 1.176 ± 0.01 mPa·s and 1.18 ± 0.06 mPa·s
x2 = 0.8999 | 1.152 ± 0.01 mPa·s and 1.15 ± 0.06 mPa·s
x2 = 0.9555 | 1.124 ± 0.009 mPa·s and 1.12 ± 0.06 mPa·s

CCCCCCC(C)O (stereo not drawn) + CCCCCCCCCCCCCC
298.15 K, 101 kPa
Conditions | viscosity [mPa·s]
x1 = 0.0003 | 2.081 ± 0.016
x2 = 0.0555 | 5.619 ± 0.052
x2 = 0.0999 | 5.163 ± 0.047
x2 = 0.1555 | 4.632 ± 0.041
x2 = 0.1998 | 4.238 ± 0.037
x2 = 0.2554 | 3.786 ± 0.032
x2 = 0.2998 | 3.455 ± 0.029
x2 = 0.3555 | 3.081 ± 0.025
x2 = 0.3999 | 2.813 ± 0.022
x2 = 0.4554 | 2.519 ± 0.02
x2 = 0.4999 | 2.314 ± 0.018
x2 = 0.5555 | 2.098 ± 0.016
x2 = 0.5998 | 1.957 ± 0.015
x2 = 0.6554 | 1.82 ± 0.014
x2 = 0.7 | 1.741 ± 0.013
x2 = 0.7555 | 1.683 ± 0.013
x2 = 0.8 | 1.668 ± 0.013
x2 = 0.8555 | 1.688 ± 0.013
x2 = 0.9 | 1.736 ± 0.013
x2 = 0.9553 | 1.835 ± 0.014

CCCCCCCCCC(=O)O + CCCCCCCCCCCCCC
100 kPa, x2 = 0.8601
Conditions | viscosity [mPa·s]
298.2 K | 2.37 ± 0.14
308.2 K | 1.9 ± 0.12
318.2 K | 1.54 ± 0.09

CCCCCCCCCC(=O)O + CCCCCCCCCCCCCCC
100 kPa, x2 = 0.8127
Conditions | viscosity [mPa·s]
298.2 K | 2.95 ± 0.18
308.2 K | 2.29 ± 0.14
318.2 K | 1.83 ± 0.11

CCCCCCCCCC(=O)O + CCCCCCCCCCCCCCCC
100 kPa, x2 = 0.6321
Conditions | viscosity [mPa·s]
298.2 K | 4.1 ± 0.25
308.2 K | 3.09 ± 0.19
318.2 K | 2.41 ± 0.15

CCCCCCCCCC(=O)O + CCCCCCCCCCCCCCCCC
100 kPa, x2 = 0.5591
Conditions | viscosity [mPa·s]
298.2 K | 4.83 ± 0.29
308.2 K | 3.6 ± 0.22
318.2 K | 2.77 ± 0.17

O=C(c1ccccc1)c1ccccc1 + CCCCCOC(C)=O
298.15 K, 101 kPa
Conditions | viscosity [mPa·s]
x1 = 0.0417 | 0.8506 ± 0.01
x1 = 0.0472 | 0.8646 ± 0.011

c1c[nH]cn1 + CCCC[N+](CCCC)(CCCC)CCCC.[Br-]
101.3 kPa, x2 = 0.3
Conditions | viscosity [mPa·s]
293.15 K | 810 ± 180
296.15 K | 540 ± 120
303.15 K | 314 ± 66
313.15 K | 144.8 ± 30
323.15 K | 75 ± 15

c1ccncc1 + CCCCn1cc[n+](C)c1.F[B-](F)(F)F
Conditions | viscosity [mPa·s]
298.15 K, 101 kPa, x1 = 0.1059 | 81.9 ± 17

c1ccncc1 + CCCO
101 kPa
Conditions | viscosity [mPa·s]
303.15 K, x1 = 0.2999 | 1.165 ± 0.0092
303.15 K, x1 = 0.5 | 0.9865 ± 0.0088
308.15 K, x1 = 0.2999 | 1.065 ± 0.009
313.15 K, x1 = 0.1001 | 1.205 ± 0.0093
323.15 K, x1 = 0.3998 | 0.7875 ± 0.0084

NCCNCCNCCN + CCO
313.15 K, 100 kPa
Conditions | viscosity [mPa·s]
x1 = 0.02 | 0.94 ± 0.06
x1 = 0.034 | 1.1 ± 0.07
x1 = 0.073 | 1.47 ± 0.09
x1 = 0.17 | 2.67 ± 0.16

c1ccncc1 + CCO
298.15 K, 101 kPa
Conditions | viscosity [mPa·s]
x1 = 0.2992 | 1.034 ± 0.017
x1 = 0.4997 | 0.9591 ± 0.016
x1 = 0.6607 | 0.8792 ± 0.015
x1 = 0.7996 | 0.8773 ± 0.015
